Measurements as given in patent publication US11649253B2, “Terbium and dysprosium complexes with optimised antenna, used as luminescent markers” (ECOLE NORMALE SUPERIEURE DE LYON, priority 2017, dated 2023).
Where “and” joins values, the source holds several entries; their conditions need not be identical. Identical values can stand only once.

Columns and labels:
[1] = Photophysical properties of the complexes measured in methanol; type: physicochemical; conditions: for λ max: absorption; for B at λ max: brightness at λ max; for ε: molar extinction coefficient; for Φ: quantum yield
Experimental: (§1) The NMR (^1H, ^13C) spectra were recorded on a Bruker Avance device at a frequency of 300 MHz or 500.10 MHz, and 75 MHz or 125.75 MHz, for ^1H and ^13C respectively. Chemical shifts (δ) are expressed in parts per million (ppm) with respect to […] used as an internal standard and using the solvents indicated. The coupling constants (J) are expressed in Hz and the following notations are used: s (singlet), br (broad), d (doublet), t (triplet), dd (doublet of doublets), m (multiplet). The high-resolution mass spectra were recorded at the Lyon Common Mass Spectrometry Centre (Claude Bernard Lyon University, Lyon, France) on a MicroTOFQII instrument equipped with a positive ESI source. […] Purifications were carried out by chromatographic column on silica gel (silica gel 0.035-0.070 mm, 60 A). The solvents used for the reactions were purchased from Aldrich or Acros Organics as dry or extra dry solvents and stored on 3 Å molecular sieves and the reagents used were purchased from Aldrich, Acros Organics or Alfa Aesar. The UV/Vis absorption spectra were recorded on a JASCO V670 spectrometer; the emission spectra on a JOBIN-YVON fluorolog 3 spectrofluorimeter. Retention times were performed on an Agilent Technologies 1260 device equipped with a Waters XBridge RP-C18 column ([…], 4.6×100 mm). The chromatographic system used is 0.25 M ammonium formate-MeCN (v/v) as eluents: isocratic 15% MeCN (2 min), linear gradient 15 to 100% MeCN (16 min), isocratic 100% MeCN (4 min), at a rate of 1 mL/min, UV detection at 210 and 252 nm. Cellular imaging tests were performed using a solution concentrated in complex in DMSO to obtain a final complex concentration in the order of […] in cellular medium (PBS) with <1% DMSO. The T24 cells are prefixed to the PFA. The biphotonic absorption spectra were performed with a confocal laser scanning microscope LSM710 NLO (Carl Zeiss).
The properties of complexes Ia.1-Ia.6 and 8 were evaluated in methanol (Table 1) and water (Table 2). These properties were compared to those of complex 9, described in the document, Dalton Trans.

[2] = Photophysical properties of the complexes measured in water; type: physicochemical; conditions: for λ max: absorption; for B at λ max: brightness at λ max; for ε: molar extinction coefficient
Experimental: as §1
The properties of complexes Ia.1-Ia.6 and 8 were evaluated in methanol (Table 1) and water (Table 2). These properties were compared to those of complex 9, described in the document, Dalton Trans. 2015, 44, 4918, and of the following structure:
The spectroscopic properties of complexes Ia.2 and Ia.4 are stored in water (Table 2).

decrease of the molar extinction coefficient on introduction of a second methyl group ([1]; Ia.4 compared with its counterpart Ia.2) | B at 330 nm ([1]; brightness at 330 nm, methanol) [L/mol/cm] | T ([1]; luminescence lifetime, methanol) [ms] | λ max ([2]; absorption band at 275 nm) [nm] | λ max ([2]; absorption band at 300 nm) [nm] | B at 330 nm ([2]; brightness at 330 nm) [L/mol/cm] | B at λ max ([2]; absorption band at 275 nm) [L/mol/cm] | B at λ max ([2]; absorption band at 300 nm) [L/mol/cm] | T ([2]; luminescence lifetime) [ms] | ε ([2]; absorption band at 275 nm) [L/mol/cm] | ε ([2]; absorption band at 300 nm) [L/mol/cm] | Φ ([2]; quantum yield) [%] | Structure (SMILES) | λ max ([1]; methanol) | B at λ max ([1]; methanol) | ε ([1]; methanol) | Φ ([1]; methanol) [%]
more than 50% | 3400 | 1.59 | 275 | 300 | 2500 | 14000 | 7800 | 1.46 | 21000 | 11800 | 66 | COCCOCCOCCOc1cc(C)c(-c2cc(CN3CCN(Cc4cc(-c5c(C)cc(OCCOCCOCCOC)cc5C)cc(C(=O)[O-])n4)CCN(Cc4cc(-c5c(C)cc(OCCOCCOCCOC)cc5C)cc(C(=O)[O-])n4)CC3)nc(C(=O)[O-])c2)c(C)c1.[Tb+3] [Ia.4] | 302 nm and 274 nm | 8500 L/mol/cm and 12000 L/mol/cm | 13000 L/mol/cm and 19000 L/mol/cm | 65
 |  |  |  |  |  |  |  |  |  |  |  | COc1ccc(-c2cc(CN3CCN(Cc4cc(-c5ccc(OC)cc5)cc(C(=O)[O-])n4)CCN(Cc4cc(-c5ccc(OC)cc5)cc(C(=O)[O-])n4)CC3)nc(C(=O)[O-])c2)cc1.[Tb+3] [complex 9, reference compound] | 308 nm | 3900 L/mol/cm | 33000 L/mol/cm | 12
